Results as given in patent US12180187B2, “1-phenyl-5-azinylpyrazolyl-3-oxyalkyl acids and their use for controlling unwanted plant growth” (BAYER AKTIENGESELLSCHAFT, priority 2019, dated 2024).

Legend:
[1] = test system: SETVI; test: Pre-emergence action against SETVI, 1280 g/ha; format: in vivo, Setaria viridis; conditions: visual scoring after about 3 weeks vs untreated controls, 100% = plants have died, 0% = like control plants
Outline: (§1)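 Each pot was doubly sown in sandy loam and covered, then its soil surface was treated with compound suspension or emulsion containing 0.5% additive at 600 L/ha water. Plants grew in a greenhouse; effect was rated visually as percentages versus controls after about 3 weeks.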

[2] = test system: POAAN; test: Pre-emergence action against POAAN, 1280 g/ha; format: in vivo, Poa annua; conditions: visual scoring after about 3 weeks vs untreated controls, 100% = plants have died, 0% = like control plants
Outline: as §1

[3] = test system: VERPE; test: Pre-emergence action against VERPE, 1280 g/ha; format: in vivo, Veronica persica; conditions: scored visually after about 3 weeks vs untreated controls (100% = plants have died)
Outline: as §1

[4] = test system: ECHCG; test: Pre-emergence action against ECHCG, 1280 g/ha; format: in vivo, Echinochloa crus-galli; conditions: visual scoring after about 3 weeks vs untreated controls, 100% = plants have died, 0% = like control plants
Outline: as §1

[5] = test system: SETVI; test: Pre-emergence action at 320 g/ha against SETVI; format: in vivo, Setaria viridis; conditions: visual scoring after about 3 weeks vs untreated controls
Outline: (§2)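 Percent herbicidal activity was assessed by eye roughly three weeks post-application, comparing with untreated plants. Treatment consisted of applying formulated compound in water plus 0.5% additive to covering soil at 600 l/ha before emergence.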

[6] = test system: POAAN; test: Post-emergence action against POAAN, 1.28 kg/ha; format: in vivo, Poa annua; conditions: dosage 1280 g/ha, visual rating about 3 weeks after treatment vs untreated controls
Outline: (§3)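 Greenhouse-grown weeds (sandy loam, twin-sown pots) were treated 2–3 weeks post-sowing at one leaf. The spray was an aqueous WP/EC preparation plus 0.5% additive, applied at 600 L/ha. Scoring was visual at ~3 weeks, 0–100% versus untreated controls.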

[7] = test system: AMARE; test: Pre-emergence action against AMARE, 1280 g/ha; format: in vivo, Amaranthus retroflexus; conditions: scored visually after about 3 weeks vs untreated controls (100% = plants have died)
Outline: as §1

[8] = test system: ALOMY; test: Pre-emergence action at 320 g/ha against ALOMY; format: in vivo, Alopecurus myosuroides; conditions: scored visually after about 3 weeks vs untreated controls (100% = plants have died)
Outline: as §2

[9] = test system: SETVI; test: Post-emergence action against SETVI, 1.28 kg/ha; format: in vivo, Setaria viridis; conditions: dosage 1280 g/ha, visual rating about 3 weeks after treatment vs untreated controls
Outline: as §3

[10] = test system: LOLRI; test: Post-emergence action against LOLRI, 1.28 kg/ha; format: in vivo, Lolium rigidum; conditions: dosage 1280 g/ha, visual rating about 3 weeks after treatment vs untreated controls
Outline: as §3

[11] = test system: MATIN; test: Pre-emergence action against MATIN, 1280 g/ha; format: in vivo, Tripleurospermum inodorum (Matricaria inodora); conditions: scored visually after about 3 weeks vs untreated controls (100% = plants have died)
Outline: as §1

[12] = test system: AMARE; test: Pre-emergence action at 320 g/ha against AMARE; format: in vivo, Amaranthus retroflexus; conditions: visual scoring after about 3 weeks vs untreated controls
Outline: as §2

[13] = test system: DIGSA; test: Pre-emergence action at 320 g/ha against DIGSA; format: in vivo, Digitaria sanguinalis; conditions: visual scoring after about 3 weeks vs untreated controls
Outline: as §2

[14] = test system: STEME; test: Pre-emergence action against STEME, 1280 g/ha; format: in vivo, Stellaria media; conditions: scored visually after about 3 weeks vs untreated controls (100% = plants have died)
Outline: as §1

[15] = test system: POLCO; test: Pre-emergence action at 320 g/ha against POLCO; format: in vivo, Fallopia convolvulus (Polygonum convolvulus); conditions: visual scoring after about 3 weeks vs untreated controls
Outline: as §2

[16] = test system: AVEFA; test: Pre-emergence action at 320 g/ha against AVEFA; format: in vivo; conditions: visual scoring after about 3 weeks vs untreated controls
Outline: as §2

Structure (SMILES)	Pre-emergence action against SETVI [1]	Pre-emergence action against POAAN [2]	Pre-emergence action against VERPE [3]	Pre-emergence action against ECHCG [4]	Pre-emergence action against SETVI in % [5]	Post-emergence action against POAAN [6]	Pre-emergence action against AMARE [7]	Pre-emergence action at 320 g/ha against ALOMY in % [8]	Post-emergence action against SETVI [9]	Post-emergence action against LOLRI [10]	Pre-emergence action against MATIN [11]	Pre-emergence action against AMARE in % [12]	Pre-emergence action against DIGSA in % [13]	Pre-emergence action against STEME [14]	Pre-emergence action against POLCO in % [15]	Pre-emergence action against AVEFA in % [16]
COC(=O)[C@@H](C)Oc1nn(-c2ccccc2)c(-c2cncnc2)c1Br [VI-013]	100%	100%	100%	100%	100%	100%	100%	90%	90%	90%	90%	90%	100%	100%	90%	–
COC(=O)C(C)Oc1nn(-c2ccccc2)c(-c2ccc(F)nc2)c1Br (centres unmarked) [VII-014]	100%	100%	90%	90%	100%	100%	100%	100%	–	90%	90%	90%	100%	100%	90%	90%
COC(=O)COc1nn(-c2ccc(F)cc2)c(-c2cccnc2)c1Br [VII-028]	100%	100%	90%	100%	100%	90%	90%	100%	90%	90%	100%	90%	90%	100%	90%	–
CCC(Oc1nn(-c2ccccc2F)c(-c2ccc(F)nc2)c1Br)C(=O)OC (centres unmarked) [VII-029]	100%	100%	100%	100%	90%	100%	100%	90%	–	100%	100%	100%	100%	100%	100%	–
CCOC(=O)COc1nn(-c2ccccc2F)c(-c2ccc(F)nc2)c1I [VII-036]	100%	100%	100%	100%	100%	100%	100%	100%	90%	100%	100%	100%	100%	100%	100%	–
CCOC(=O)C(C)Oc1nn(-c2ccccc2F)c(-c2ccc(F)nc2)c1I (centres unmarked) [VII-057]	100%	100%	100%	100%	90%	100%	100%	100%	100%	–	100%	100%	100%	100%	90%	90%
COC(=O)[C@H](C)Oc1nn(-c2cc(F)ccc2F)c(-c2ccc(F)nc2)c1Br [VII-107]	100%	100%	100%	90%	100%	100%	100%	80%	90%	–	90%	100%	100%	100%	100%	90%
COC(=O)[C@@H](C)Oc1nn(-c2cc(F)ccc2F)c(-c2cncc(F)c2)c1Br [VII-132]	100%	100%	100%	100%	100%	100%	100%	100%	90%	–	100%	100%	100%	100%	100%	100%
O=C(O)COc1nn(-c2ccccc2F)c(-c2ccnc(F)c2)c1Br [VIII-004]	100%	100%	90%	100%	90%	100%	100%	100%	100%	100%	100%	100%	100%	100%	90%	–
